From ChEMBL document CHEMBL1833895, “Synthesis and biological activity of desmethoxy analogues of coruscanone A” (Bioorg Med Chem Lett, 2011)

What was measured:
Candida albicans [1] = assay: Antifungal activity against Candida albicans ATCC 44859 after 48 hrs by microdilution method; assay type: functional; conditions: ATCC 44859, 48 h
Candida albicans [2] = assay: Antifungal activity against Candida albicans ATCC 90028 after 24 hrs by microdilution method; assay type: functional; conditions: ATCC 90028, 24 h
Candida albicans [3] = assay: Antifungal activity against Candida albicans ATCC 90028 after 48 hrs by microdilution method; assay type: functional; conditions: ATCC 90028, 48 h
Candida parapsilosis [4] = assay: Antifungal activity against Candida parapsilosis ATCC 22019 after 24 hrs by microdilution method; assay type: functional; conditions: Lodderomyces parapsilosis, ATCC 22019, 24 h
Candida parapsilosis [5] = assay: Antifungal activity against Candida parapsilosis ATCC 22019 after 48 hrs by microdilution method; assay type: functional; conditions: Lodderomyces parapsilosis, ATCC 22019, 48 h
Pichia kudriavzevii [6] = assay: Antifungal activity against Candida krusei ATCC 6258 after 24 hrs by microdilution method; assay type: functional; conditions: ATCC 6258, 24 h
Pichia kudriavzevii [7] = assay: Antifungal activity against Candida krusei ATCC 6258 after 48 hrs by microdilution method; assay type: functional; conditions: ATCC 6258, 48 h
Pichia kudriavzevii [8] = assay: Antifungal activity against Candida krusei E28 after 24 hrs by microdilution method; assay type: functional; conditions: E28, 24 h
Pichia kudriavzevii [9] = assay: Antifungal activity against Candida krusei E28 after 48 hrs by microdilution method; assay type: functional; conditions: E28, 48 h
Candida tropicalis [10] = assay: Antifungal activity against Candida tropicalis 156 after 24 hrs by microdilution method; assay type: functional; conditions: Candida tropicalis, 156, 24 h
Candida tropicalis [11] = assay: Antifungal activity against Candida tropicalis 156 after 48 hrs by microdilution method; assay type: functional; conditions: Candida tropicalis, 156, 48 h
Nakaseomyces glabratus [12] = assay: Antifungal activity against Candida glabrata 20/I after 24 hrs by microdilution method; assay type: functional
Nakaseomyces glabratus [13] = assay: Antifungal activity against Candida glabrata 20/I after 48 hrs by microdilution method; assay type: functional
Clavispora lusitaniae [14] = assay: Antifungal activity against Candida lusitaniae 2446/I after 24 hrs by microdilution method; assay type: functional
Clavispora lusitaniae [15] = assay: Antifungal activity against Candida lusitaniae 2446/I after 48 hrs by microdilution method; assay type: functional
Trichosporon asahii [16] = assay: Antifungal activity against Trichosporon asahii 1188 after 24 hrs by microdilution method; assay type: functional; conditions: Trichosporon asahii, 1188, 24 h
Trichosporon asahii [17] = assay: Antifungal activity against Trichosporon asahii 1188 after 48 hrs by microdilution method; assay type: functional; conditions: Trichosporon asahii, 1188, 48 h
Aspergillus fumigatus [18] = assay: Antifungal activity against Aspergillus fumigatus 231 after 24 hrs by microdilution method; assay type: functional, organism-based; conditions: Aspergillus fumigatus, 231, 24 h
Aspergillus fumigatus [19] = assay: Antifungal activity against Aspergillus fumigatus 231 after 48 hrs by microdilution method; assay type: functional, organism-based; conditions: Aspergillus fumigatus, 231, 48 h
Lichtheimia corymbifera [20] = assay: Antifungal activity against Absidia corymbifera 272 after 24 hrs by microdilution method; assay type: functional, organism-based; conditions: Lichtheimia corymbifera, 272, 24 h
Lichtheimia corymbifera [21] = assay: Antifungal activity against Absidia corymbifera 272 after 48 hrs by microdilution method; assay type: functional, organism-based; conditions: Lichtheimia corymbifera, 272, 48 h
Candida albicans [22] = assay: Antifungal activity against Candida albicans ATCC 44859 after 24 hrs by microdilution method; assay type: functional; conditions: ATCC 44859, 24 h
[23] = tested on: Trichophyton mentagrophytes; assay: Antifungal activity against Trichophyton mentagrophytes 445 after 72 hrs by microdilution method; assay type: functional, organism-based; conditions: Trichophyton mentagrophytes, 445, 72 h
[24] = tested on: Trichophyton mentagrophytes; assay: Antifungal activity against Trichophyton mentagrophytes 445 after 120 hrs by microdilution method; assay type: functional, organism-based; conditions: Trichophyton mentagrophytes, 445, 120 h
L1210 = assay: Cytostatic activity against mouse L1210 cells at 10 umol/L after 72 hrs by XTT assay; assay type: ADME, cell-based; conditions: l1210, 72 h, 10 µM
HL-60 = assay: Cytostatic activity against human HL60 cells at 10 umol/L after 72 hrs by XTT assay; assay type: ADME, cell-based; conditions: hl-60, 72 h, 10 µM
[25] = Cytostatic activity against human HeLaS3 cells at 10 umol/L after 48 hrs by XTT assay; assay type: ADME, cell-based; conditions: hela s3, 48 h, 10 µM
CCRF-CEM = assay: Cytostatic activity against human CCRF-CEM cells after 72 hrs by XTT assay; assay type: ADME, cell-based
HT-29 = assay: Cytostatic activity against human HT-29 cells at 10 umol/L after 72 hrs by XTT assay; assay type: ADME, cell-based; conditions: ht-29, 72 h, 10 µM
[26] = Cytostatic activity against human COLO201 cells at 10 umol/L after 72 hrs by XTT assay; assay type: ADME, cell-based; conditions: colo 201, 72 h, 10 µM

Row | Compound | IC80 (Candida albicans [1]) [µM] | IC80 (Candida albicans [2]) [µM] | IC80 (Candida albicans [3]) [µM] | IC80 (Candida parapsilosis [4]) [µM] | IC80 (Candida parapsilosis [5]) [µM] | IC80 (Pichia kudriavzevii [6]) [µM] | IC80 (Pichia kudriavzevii [7]) [µM] | IC80 (Pichia kudriavzevii [8]) [µM] | IC80 (Pichia kudriavzevii [9]) [µM] | IC80 (Candida tropicalis [10]) [µM] | IC80 (Candida tropicalis [11]) [µM] | IC80 (Nakaseomyces glabratus [12]) [µM] | IC80 (Nakaseomyces glabratus [13]) [µM] | IC80 (Clavispora lusitaniae [14]) [µM] | IC80 (Clavispora lusitaniae [15]) [µM] | IC80 (Trichosporon asahii [16]) [µM] | IC80 (Trichosporon asahii [17]) [µM] | IC80 (Aspergillus fumigatus [18]) [µM] | IC80 (Aspergillus fumigatus [19]) [µM] | IC80 (Lichtheimia corymbifera [20]) [µM] | further results
1 | O=C1C=CC(=O)C1=Cc1cccs1 | 7.81 | 15.6 | 15.6 | 15.6 | 15.6 | 7.81 | 15.6 | 7.81 | 7.81 | 15.6 | 15.6 | 7.81 | 15.6 | 15.6 | 15.6 | 15.6 | 31.2 | 15.6 | 15.6 | 500 | IC80 (Lichtheimia corymbifera [21]): > 500 µM; IC80 (Candida albicans [22]): 7.81 µM; IC80 [23]: 15.6 µM; IC50 [24]: 15.6 µM; Activity (L1210): Non-toxic; Activity (HL-60): Non-toxic; Activity [25]: Non-toxic; IC50 (CCRF-CEM): 4.2 µM; Activity (HT-29): Non-toxic; Activity [26]: Non-toxic
2 | O=C1C=CC(=O)C1=Cc1cccc(Br)c1 | 31.2 | 15.6 | 31.2 | 31.2 | 62.5 | 15.6 | 31.2 | 31.2 | 31.2 | 31.2 | 62.5 | 31.2 | 62.5 | 31.2 | 31.2 | 32.5 | 125 | 125 | 125 | > 125 | IC80 (Lichtheimia corymbifera [21]): > 125 µM; IC80 (Candida albicans [22]): 15.6 µM; IC80 [23]: 15.6 µM; IC50 [24]: 15.6 µM; Activity (L1210): Non-toxic; Activity (HL-60): Non-toxic; Activity [25]: Non-toxic; IC50 (CCRF-CEM): 7.5 µM; Activity (HT-29): Non-toxic; Activity [26]: Non-toxic
3 | OC(Cn1cncn1)(Cn1cncn1)c1ccc(F)cc1F [FLUCONAZOLE] | 2 | 0.8 | 3.3 | 6.5 | 13 | > 50 | > 50 | > 50 | > 50 | 3 | 5 | 22 | > 50 | 3.3 | 3.3 | 4 | 9 | > 50 | > 50 | > 50 | IC80 (Lichtheimia corymbifera [21]): > 50 µM; IC80 (Candida albicans [22]): 1 µM; IC80 [23]: 17 µM; IC50 [24]: 26 µM
4 | O=C1C=CC(=O)C1=Cc1ccccc1 | 1.95 | 3.9 | 7.81 | 3.9 | 3.9 | 3.9 | 3.9 | 3.9 | 7.81 | 3.9 | 3.9 | 7.81 | 7.81 | 7.81 | 15.6 | 1.95 | 3.9 | 15.6 | 31.2 | 250 | IC80 (Lichtheimia corymbifera [21]): 250 µM; IC80 (Candida albicans [22]): 1.95 µM; IC80 [23]: 1.95 µM; IC50 [24]: 3.9 µM; Activity (L1210): Non-toxic; Activity (HL-60): Non-toxic; Activity [25]: Non-toxic; IC50 (CCRF-CEM): 2.6 µM; Activity (HT-29): Non-toxic; Activity [26]: Non-toxic
5 | COc1ccc(C=C2C(=O)C=CC2=O)cc1 | 7.81 | 7.81 | 7.81 | 7.81 | 15.6 | 3.9 | 3.9 | 3.9 | 7.81 | 7.81 | 7.81 | 7.81 | 7.81 | 7.81 | 31.2 | 7.81 | 31.2 | 15.6 | 31.2 | > 250 | IC80 (Lichtheimia corymbifera [21]): > 250 µM; IC80 (Candida albicans [22]): 3.9 µM; IC80 [23]: 3.9 µM; IC50 [24]: 7.81 µM; Activity (L1210): Non-toxic; Activity (HL-60): Non-toxic; Activity [25]: Non-toxic; IC50 (CCRF-CEM): 3.8 µM; Activity (HT-29): Non-toxic; Activity [26]: Non-toxic
6 | O=C1C=CC(=O)C1=C/C=C/c1ccccc1 | 1.95 | 15.6 | 15.6 | 3.9 | 7.81 | 3.9 | 7.81 | 15.6 | 15.6 | 7.81 | 15.6 | 15.6 | 31.2 | 7.81 | 15.6 | 7.81 | 15.6 | 31.2 | 31.2 | > 125 | IC80 (Lichtheimia corymbifera [21]): > 125 µM; IC80 (Candida albicans [22]): 1.95 µM; IC80 [23]: 7.81 µM; IC50 [24]: 62.5 µM; Activity (L1210): Non-toxic; Activity (HL-60): Non-toxic; Activity [25]: Non-toxic; IC50 (CCRF-CEM): 4.4 µM; Activity (HT-29): Non-toxic; Activity [26]: Non-toxic
7 | Cc1ccc(C=C2C(=O)C=CC2=O)cc1 | 7.81 | 3.9 | 15.6 | 15.6 | 15.6 | 7.81 | 15.6 | 15.6 | 15.6 | 7.81 | 15.6 | 15.6 | 15.6 | 15.6 | 15.6 | 15.6 | 62.5 | 31.2 | 125 | > 250 | IC80 (Lichtheimia corymbifera [21]): > 250 µM; IC80 (Candida albicans [22]): 3.9 µM; IC80 [23]: 125 µM; IC50 [24]: > 250 µM; Activity (L1210): Non-toxic; Activity (HL-60): Non-toxic; Activity [25]: Non-toxic; IC50 (CCRF-CEM): 2.7 µM; Activity (HT-29): Non-toxic; Activity [26]: Non-toxic
8 | O=C1C=CC(=O)C1=Cc1ccc(Cl)cc1 | 31.2 | 31.2 | 31.2 | 31.2 | 31.2 | 31.2 | 31.2 | 31.2 | 62.5 | 31.2 | 31.2 | 62.5 | 62.5 | 31.2 | 31.2 | 31.2 | 62.5 | 62.5 | 62.5 | > 125 | IC80 (Lichtheimia corymbifera [21]): > 125 µM; IC80 (Candida albicans [22]): 7.81 µM; IC80 [23]: 125 µM; IC50 [24]: > 125 µM; Activity (L1210): Non-toxic; Activity (HL-60): Non-toxic; Activity [25]: Non-toxic; IC50 (CCRF-CEM): 6.1 µM; Activity (HT-29): Non-toxic; Activity [26]: Non-toxic
9 | O=C1C=CC(=O)C1=Cc1ccc(F)cc1 | 15.6 | 15.6 | 31.2 | 15.6 | 31.2 | 15.6 | 31.2 | 15.6 | 31.2 | 15.6 | 31.2 | 31.2 | 31.2 | 15.6 | 31.2 | 31.2 | 62.5 | 31.2 | 62.5 | > 125 | IC80 (Lichtheimia corymbifera [21]): > 125 µM; IC80 (Candida albicans [22]): 7.81 µM; IC80 [23]: 15.6 µM; IC50 [24]: 15.6 µM; Activity (L1210): Non-toxic; Activity (HL-60): Non-toxic; Activity [25]: Non-toxic; IC50 (CCRF-CEM): 1.6 µM; Activity (HT-29): Non-toxic; Activity [26]: Non-toxic
